{"source": "patent US9695155B2", "about": "“Herbicidal substituted pyrimidinyloxy benzene compounds” (E. I. DU PONT DE NEMOURS AND COMPANY, priority 2013, dated 2017)", "key": {"[1]": {"system": "field poppy", "experiment": "Test D preemergence", "format": "in vivo, Papaver rhoeas", "details": "Papaver rhoeas, pre-emergence, scale 0-100, read-out: Plant response rating, Field Poppy", "text": "(§1) Seeds of plant species selected from bluegrass (annual bluegrass, Poa annua), blackgrass (Alopecurus myosuroides), canarygrass (littleseed canarygrass, Phalaris minor), chickweed (common chickweed, Stellaria media), galium (catchweed bedstraw, Galium aparine), bromegrass, downy (downy bromegrass, Bromus tectorum), field poppy (Papaver rhoeas), field violet (Viola arvensis), green foxtail (Setaria viridis), deadnettle (henbit deadnettle, Lamium amplexicaule), Italian ryegrass (Lolium multiflorum), kochia (Kochia scoparia), lambsquarters (Chenopodium album), oilseed rape (Brassica napus), pigweed (Amaranthus retroflexus), chamomile (scentless chamomile, Matricaria inodora), Russian thistle (Salsola kali), speedwell (bird's-eye speedwell, Veronica persica), spring barley (Hordeum vulgare), spring wheat (Triticum aestivum), wild buckwheat (Polygonum convolvulus), wild mustard (Sinapis arvensis), wild oat (Avena fatua), wild radish (Raphanus raphanistrum), windgrass (Apera spica-venti), winter barley (Hordeum vulgare), and winter wheat (Triticum aestivum) were planted into a silt loam soil and treated preemergence with test chemicals formulated in a non-phytotoxic solvent mixture which included a surfactant.\n(§2) At the same time, these species were planted in pots containing Redi-Earth® planting medium (Scotts Company, 14111 Scottslawn Road, Marysville, Ohio 43041) comprising spaghnum peat moss, vermiculite, wetting agent and starter nutrients and treated with postemergence applications of the test chemicals formulated in the same manner. Plants ranged in height from 2 to 18 cm (1- to 4-leaf stage). Treated plants and controls were maintained in a controlled growth environment for 7 to 21 days after which time all species were compared to controls and visually evaluated. Plant response ratings, summarized in Table D, are based on a scale of 0 to 100 where 0 is no effect and 100 is complete control. A dash (-) response means no test result."}, "[2]": {"system": "lambsquarters", "experiment": "Test D preemergence", "format": "in vivo, Chenopodium album", "details": "Chenopodium album, pre-emergence, scale 0-100, read-out: Plant response rating, Lambsquarters", "text": "as §1, §2"}, "[3]": {"system": "wild radish", "experiment": "Test D postemergence", "format": "in vivo, Raphanus raphanistrum", "details": "Raphanus raphanistrum, post-emergence, scale 0 to 100 (0 no effect, 100 complete control), read-out: Plant response rating, Radish, Wild", "text": "as §1, §2"}, "[4]": {"system": "bluegrass", "experiment": "Test D postemergence", "format": "in vivo, Poa annua", "details": "Poa annua, post-emergence, Postemergence, scale 0 to 100 (0 no effect, 100 complete control), read-out: Plant response rating, Bluegrass", "text": "as §1, §2"}, "[5]": {"system": "oilseed rape", "experiment": "Test D postemergence", "format": "in vivo, Brassica napus", "details": "Brassica napus, post-emergence, scale 0 to 100 (0 no effect, 100 complete control), read-out: Plant response rating, Oilseed Rape", "text": "as §1, §2"}, "[6]": {"system": "deadnettle", "experiment": "Test D postemergence", "format": "in vivo, Lamium amplexicaule", "details": "Lamium amplexicaule, post-emergence, scale 0 to 100 (0 no effect, 100 complete control), read-out: Plant response rating, Deadnettle", "text": "as §1, §2"}, "[7]": {"system": "green foxtail", "experiment": "Test D preemergence", "format": "in vivo, Setaria viridis", "details": "Setaria viridis, pre-emergence, scale 0-100, read-out: Plant response rating, Foxtail, Green", "text": "as §1, §2"}}, "data": [{"smiles": "N#Cc1cccc(Oc2ncc(Cl)cn2)c1-n1cc(Br)cn1", "note": "[Compound 52, 2-(4-bromo-1H-pyrazol-1-yl)-3-[(5-chloro-2-pyrimidinyl)oxy]benzonitrile]", "values": [{"measurement": "pest or weed control at 31 g/ha", "setting": "[1]; 31 g ai/ha", "value": 95, "unit": "%"}, {"measurement": "pest or weed control at 62 g/ha", "setting": "[1]; 62 g ai/ha", "value": 80, "unit": "%"}, {"measurement": "pest or weed control at 125 g/ha", "setting": "[1]; 125 g ai/ha", "value": 90, "unit": "%"}, {"measurement": "pest or weed control at 250 g/ha", "setting": "[1]; 250 g ai/ha", "value": 100, "unit": "%"}, {"measurement": "pest or weed control at 31 g/ha", "setting": "[2]; 31 g ai/ha", "value": 80, "unit": "%"}, {"measurement": "pest or weed control at 62 g/ha", "setting": "[2]; 62 g ai/ha", "value": 100, "unit": "%"}, {"measurement": "pest or weed control at 125 g/ha", "setting": "[2]; 125 g ai/ha", "value": 100, "unit": "%"}, {"measurement": "pest or weed control at 250 g/ha", "setting": "[2]; 250 g ai/ha", "value": 100, "unit": "%"}, {"measurement": "pest or weed control at 31 g/ha", "setting": "[3]; 31 g ai/ha", "value": 65, "unit": "%"}, {"measurement": "pest or weed control at 62 g/ha", "setting": "[3]; 62 g ai/ha", "value": 70, "unit": "%"}, {"measurement": "pest or weed control at 125 g/ha", "setting": "[3]; 125 g ai/ha", "value": 80, "unit": "%"}, {"measurement": "pest or weed control at 250 g/ha", "setting": "[3]; 250 g ai/ha", "value": 90, "unit": "%"}, {"measurement": "pest or weed control at 31 g/ha", "setting": "[4]; 31 g ai/ha", "value": 15, "unit": "%"}, {"measurement": "pest or weed control at 62 g/ha", "setting": "[4]; 62 g ai/ha", "value": 20, "unit": "%"}, {"measurement": "pest or weed control at 125 g/ha", "setting": "[4]; 125 g ai/ha", "value": 15, "unit": "%"}, {"measurement": "pest or weed control at 250 g/ha", "setting": "[4]; 250 g ai/ha", "value": 25, "unit": "%"}, {"measurement": "plant injury at 31 g/ha", "setting": "[5]; 31 g ai/ha", "value": 55, "unit": "%"}, {"measurement": "plant injury at 62 g/ha", "setting": "[5]; 62 g ai/ha", "value": 65, "unit": "%"}, {"measurement": "plant injury at 125 g/ha", "setting": "[5]; 125 g ai/ha", "value": 85, "unit": "%"}, {"measurement": "plant injury at 250 g/ha", "setting": "[5]; 250 g ai/ha", "value": 95, "unit": "%"}, {"measurement": "pest or weed control at 31 g/ha", "setting": "[6]; 31 g ai/ha", "value": 65, "unit": "%"}, {"measurement": "pest or weed control at 62 g/ha", "setting": "[6]; 62 g ai/ha", "value": 70, "unit": "%"}, {"measurement": "pest or weed control at 125 g/ha", "setting": "[6]; 125 g ai/ha", "value": 70, "unit": "%"}, {"measurement": "pest or weed control at 250 g/ha", "setting": "[6]; 250 g ai/ha", "value": 100, "unit": "%"}, {"measurement": "pest or weed control at 31 g/ha", "setting": "[7]; 31 g ai/ha", "value": 20, "unit": "%"}, {"measurement": "pest or weed control at 62 g/ha", "setting": "[7]; 62 g ai/ha", "value": 60, "unit": "%"}, {"measurement": "pest or weed control at 125 g/ha", "setting": "[7]; 125 g ai/ha", "value": 100, "unit": "%"}, {"measurement": "pest or weed control at 250 g/ha", "setting": "[7]; 250 g ai/ha", "value": 100, "unit": "%"}]}]}
